Laboratory results taken from patent publication US9833497B2, “Human originated EGF domain proteins and use of the same” (CHENGDU SOURCEBIO LIMITED-LIABILITY COMPANY, priority 2013, dated 2017).

Tests used:
Assay type in all cases: cell-based
Moraxella catarrhalis = assay: MIC against Gram-negative bacteria: Moraxella catarrhalis; conditions: 5×10^5 CFU/mL
In short: (§1)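 Two-fold serial dilutions of each purified human EGF domain protein, three replicate wells per level, were combined with bacteria at a final 5×10^5 CFU/mL in LB. Cultures were shaken at 175 rpm, 37° C. The MIC was taken as the minimum concentration preventing growth.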

Proteus mirabilis = assay: MIC against Gram-negative bacteria: Proteus mirabilis; conditions: 5×10^5 CFU/mL
In short: as §1

Klebsiella pneumonia = assay: MIC against Gram-negative bacteria: Klebsiella pneumonia; conditions: 5×10^5 CFU/mL
In short: as §1

Enterobacter cloacae = assay: MIC against Gram-negative bacteria: Enterobacter cloacae; conditions: 5×10^5 CFU/mL
In short: as §1

E. coli BL21 = assay: MIC against Gram-negative bacteria: E. coli BL21; conditions: 5×10^5 CFU/mL
In short: as §1

Proteus vulgaris = assay: MIC against Gram-negative bacteria: Proteus vulgaris; conditions: 5×10^5 CFU/mL
In short: as §1

Pseudomonas aeruginosa = assay: MIC against Gram-negative bacteria: Pseudomonas aeruginosa; conditions: 5×10^5 CFU/mL
In short: as §1

E. coli DH5α = assay: Antibacterial activity: MIC and growth curve against E. coli DH5α in 96-well plate; conditions: minimal inhibitory concentration against E. coli DH5α; 96-well plate, 5×10^5 CFU/mL, 37° C., judged after 8 h
In short: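 MIC taken as lowest protein level with no bacterial growth, tracked by A600 every 30 min during 37 °C, 175 rpm culture. Two-fold protein series 50-12.5 μg/mL final, triplicate wells, against 5×10^5 CFU/mL of LB-washed mid-log cells.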

Serratia marcescens = assay: MIC against Gram-negative bacteria: Serratia marcescens; conditions: 5×10^5 CFU/mL
In short: as §1

Citrobacter diversus = assay: MIC against Gram-negative bacteria: Citrobacter diversus; conditions: 5×10^5 CFU/mL
In short: as §1

Aeromonas hydrophila = assay: MIC against Gram-negative bacteria: Aeromonas hydrophila; conditions: 5×10^5 CFU/mL
In short: as §1

[1] = Moraxella catarrhalis, 10 h cultivation at 37° C.
[2] = Proteus mirabilis, 10 h cultivation at 37° C.
[3] = Klebsiella pneumonia, 10 h cultivation at 37° C.
[4] = Enterobacter cloacae, 10 h cultivation at 37° C.
[5] = E. coli BL21, 10 h cultivation at 37° C.
[6] = Proteus vulgaris, 10 h cultivation at 37° C.
[7] = Pseudomonas aeruginosa, 10 h cultivation at 37° C.
[8] = Serratia marcescens, 10 h cultivation at 37° C.
[9] = Citrobacter diversus, 10 h cultivation at 37° C.
[10] = Aeromonas hydrophila, 10 h cultivation at 37° C.
[11] = Moraxella catarrhalis, 96-well plate, 37° C., 10 h
[12] = Proteus mirabilis, 96-well plate, 37° C., 10 h
[13] = Klebsiella pneumonia, 96-well plate, 37° C., 10 h
[14] = Enterobacter cloacae, 96-well plate, 37° C., 10 h
[15] = E. coli BL21, 96-well plate, 37° C., 10 h
[16] = Proteus vulgaris, 96-well plate, 37° C., 10 h
[17] = Pseudomonas aeruginosa, 96-well plate, 37° C., 10 h
[18] = Serratia marcescens, 96-well plate, 37° C., 10 h
[19] = Citrobacter diversus, 96-well plate, 37° C., 10 h
[20] = Aeromonas hydrophila, 96-well plate, 37° C., 10 h

PRT1434 (DVDECKYHPCYPGVHCINLSPGFRCDACPVGFTGPMVQ; listed as Homo sapiens)
MIC against M. catarrhalis (Moraxella catarrhalis; [1]): 12.5 µg/mL
MIC against P. mirabilis (Proteus mirabilis; [2]): 25 µg/mL
MIC against K. pneumonia (Klebsiella pneumonia; [3]): 100 µg/mL
MIC against E. cloacae (Enterobacter cloacae; [4]): 25 µg/mL
MIC against E. coli BL21 (E. coli BL21; [5]): 12.5 µg/mL
MIC against P. vulgaris (Proteus vulgaris; [6]): 12.5 µg/mL
MIC against P. aeruginosa (Pseudomonas aeruginosa; [7]): 25 µg/mL
MIC (E. coli DH5α): 25 µg/mL
MIC against S. marcescens (Serratia marcescens; [8]): 12.5 µg/mL
MIC against C. diversus (Citrobacter diversus; [9]): 25 µg/mL
MIC against A. hydrophila (Aeromonas hydrophila; [10]): 12.5 µg/mL

PRT1453 (DVDECAEPGLSHCHALATCVNVVGSYLCVCPAGYRGDGWHCE; listed as Homo sapiens)
MIC against M. catarrhalis (Moraxella catarrhalis; [1]): 50 µg/mL
MIC against P. mirabilis (Proteus mirabilis; [2]): 12.5 µg/mL
MIC against K. pneumonia (Klebsiella pneumonia; [3]): 50 µg/mL
MIC against E. cloacae (Enterobacter cloacae; [4]): 25 µg/mL
MIC against E. coli BL21 (E. coli BL21; [5]): 12.5 µg/mL
MIC against P. vulgaris (Proteus vulgaris; [6]): 25 µg/mL
MIC against P. aeruginosa (Pseudomonas aeruginosa; [7]): 25 µg/mL
MIC (E. coli DH5α): 25 µg/mL
MIC against S. marcescens (Serratia marcescens; [8]): 12.5 µg/mL
MIC against C. diversus (Citrobacter diversus; [9]): 25 µg/mL
MIC against A. hydrophila (Aeromonas hydrophila; [10]): 12.5 µg/mL

PRT495 (CDCDLRGTSGDACNLEQGLCGCVEETGACPCKENVFGPQCNECREGTFALRADNPLGCSP; listed as Homo sapiens)
MIC against M. catarrhalis (Moraxella catarrhalis; 96-well plate, 37° C., 10 h): 12.5 µg/mL
MIC against P. mirabilis (Proteus mirabilis; 96-well plate, 37° C., 10 h): 25 µg/mL
MIC against K. pneumonia (Klebsiella pneumonia; 96-well plate, 37° C., 10 h): 12.5 µg/mL
MIC against E. cloacae (Enterobacter cloacae; 96-well plate, 37° C., 10 h): 25 µg/mL
MIC against E. coli BL21 (E. coli BL21; 96-well plate, 37° C., 10 h): 50 µg/mL
MIC against P. vulgaris (Proteus vulgaris; 96-well plate, 37° C., 10 h): 12.5 µg/mL
MIC against P. aeruginosa (Pseudomonas aeruginosa; 96-well plate, 37° C., 10 h): 25 µg/mL
MIC (E. coli DH5α): 25 µg/mL
MIC against S. marcescens (Serratia marcescens; 96-well plate, 37° C., 10 h): 25 µg/mL
MIC against C. diversus (Citrobacter diversus; 96-well plate, 37° C., 10 h): 25 µg/mL
MIC against A. hydrophila (Aeromonas hydrophila; 96-well plate, 37° C., 10 h): 50 µg/mL

PRT458 (ECSRLCRNGYCTPTGKCCCSPGWEGDFC; listed as Homo sapiens)
MIC against M. catarrhalis (Moraxella catarrhalis; 96-well plate, 37° C., 10 h): 25 µg/mL
MIC against P. mirabilis (Proteus mirabilis; 96-well plate, 37° C., 10 h): 12.5 µg/mL
MIC against K. pneumonia (Klebsiella pneumonia; 96-well plate, 37° C., 10 h): 12.5 µg/mL
MIC against E. cloacae (Enterobacter cloacae; 96-well plate, 37° C., 10 h): 12.5 µg/mL
MIC against E. coli BL21 (E. coli BL21; 96-well plate, 37° C., 10 h): 12.5 µg/mL
MIC against P. vulgaris (Proteus vulgaris; 96-well plate, 37° C., 10 h): 25 µg/mL
MIC against P. aeruginosa (Pseudomonas aeruginosa; 96-well plate, 37° C., 10 h): 12.5 µg/mL
MIC (E. coli DH5α): 50 µg/mL
MIC against S. marcescens (Serratia marcescens; 96-well plate, 37° C., 10 h): 12.5 µg/mL
MIC against C. diversus (Citrobacter diversus; 96-well plate, 37° C., 10 h): 12.5 µg/mL
MIC against A. hydrophila (Aeromonas hydrophila; 96-well plate, 37° C., 10 h): 25 µg/mL

PRT1494 (KALCTPRCMNGGLCVTPGFCICPPGFYGVNCD; listed as Homo sapiens)
MIC (μg/mL) M. catarrhalis (Moraxella catarrhalis; [11]): 25 µg/mL
MIC (μg/mL) P. mirabilis (Proteus mirabilis; [12]): 12.5 µg/mL
MIC (μg/mL) K. pneumonia (Klebsiella pneumonia; [13]): 12.5 µg/mL
MIC (μg/mL) E. cloacae (Enterobacter cloacae; [14]): 25 µg/mL
MIC (μg/mL) E. coli BL21 (E. coli BL21; [15]): 12.5 µg/mL
MIC (μg/mL) P. vulgaris (Proteus vulgaris; [16]): 12.5 µg/mL
MIC (μg/mL) P. aeruginosa (Pseudomonas aeruginosa; [17]): 25 µg/mL
MIC (E. coli DH5α): 25 µg/mL
MIC (μg/mL) S. marcescens (Serratia marcescens; [18]): 12.5 µg/mL
MIC (μg/mL) C. diversus (Citrobacter diversus; [19]): 25 µg/mL
MIC (μg/mL) A. hydrophila (Aeromonas hydrophila; [20]): 12.5 µg/mL

PRT1291 (PIHACISNPCKHGGTCHLKEGEEDGFWCICADGFEGENCE; listed as Homo sapiens)
MIC against M. catarrhalis (Moraxella catarrhalis; [11]): 12.5 µg/mL
MIC against P. mirabilis (Proteus mirabilis; [12]): 50 µg/mL
MIC against K. pneumonia (Klebsiella pneumonia; [13]): 50 µg/mL
MIC against E. cloacae (Enterobacter cloacae; [14]): 25 µg/mL
MIC against E. coli BL21 (E. coli BL21; [15]): 100 µg/mL
MIC against P. vulgaris (Proteus vulgaris; [16]): 12.5 µg/mL
MIC against P. aeruginosa (Pseudomonas aeruginosa; [17]): 25 µg/mL
MIC (E. coli DH5α): 50 µg/mL
MIC against S. marcescens (Serratia marcescens; [18]): 12.5 µg/mL
MIC against C. diversus (Citrobacter diversus; [19]): 50 µg/mL
MIC against A. hydrophila (Aeromonas hydrophila; [20]): 12.5 µg/mL

PRT679 (DLNECAKPHLCGDGGFCINFPGHYKCNCYPGYRLKASRPPVCE; listed as Homo sapiens)
MIC M. catarrhalis (Moraxella catarrhalis; 96-well plate, 37° C., 10 h): 12.5 µg/mL
MIC P. mirabilis (Proteus mirabilis; 96-well plate, 37° C., 10 h): 25 µg/mL
MIC K. pneumonia (Klebsiella pneumonia; 96-well plate, 37° C., 10 h): 25 µg/mL
MIC E. cloacae (Enterobacter cloacae; 96-well plate, 37° C., 10 h): 12.5 µg/mL
MIC E. coli BL21 (E. coli BL21; 96-well plate, 37° C., 10 h): 50 µg/mL
MIC P. vulgaris (Proteus vulgaris; 96-well plate, 37° C., 10 h): 50 µg/mL
MIC P. aeruginosa (Pseudomonas aeruginosa; 96-well plate, 37° C., 10 h): 25 µg/mL
MIC (E. coli DH5α): 12.5 µg/mL
MIC S. marcescens (Serratia marcescens; 96-well plate, 37° C., 10 h): 25 µg/mL
MIC C. diversus (Citrobacter diversus; 96-well plate, 37° C., 10 h): 50 µg/mL
MIC A. hydrophila (Aeromonas hydrophila; 96-well plate, 37° C., 10 h): 25 µg/mL
